Patent publication US20180193294A1, “Dehydroabietic acid (DHAA) derivatives for use as ion channel openers” (priority 2015, published 2018)

Target: 3R Shaker K channel (Drosophila melanogaster, UniProt P08510, A359R/M356R)
Assay: physchem
Type: cell-based
Details: Table 1; 100 μM, pH 7.4, Xenopus oocytes
Source text: A 3R Shaker K channel is a modified Shaker K channel where residues 356 and 359 are mutated to arginines.
All animal experiments were approved by the local Animal Care and Use Committee and followed international guidelines. A modified Shaker H4 channel^30, with removed N-type inactivation (ShH4IR)^31, here called the wild type (WT) channel, was expressed in oocytes. In addition, a modified 3R Shaker K channel where two introduced positive charged arginines (M356R and A359R) in addition to one native arginine (R362) makes the channel more sensitive to DHA^16, was expressed in oocytes and in a CHO—K1 stable cell line.
African clawed frogs (Xenopus laevis) were anesthetized with 1.4 g/L ethyl 3-aminobenzoate methanesulfonate salt (tricaine). After an incision through the abdomen a batch of oocytes were removed. Clusters of oocytes were separated by incubation for ˜1 h in a Ca-free O—R2 solution (in mM: 82.5 NaCl, 2 KCl, 5 HEPES, and 1 MgCl2; pH adjusted to 7.4 by NaOH) containing Liberase Blendzyme. The oocytes were then incubated at 8° C. in a modified Barth's solution (MBS; in mM: 88 NaCl, 1 KCl, 2.4 NaHCO3, 15 HEPES, 0.33 Ca(NO3)2, 0.41 CaCl2, and 0.82 MgSO4; pH adjusted to 7.6 by NaOH) supplemented with penicillin (25 U/ml), streptomycin (25 μg/ml), and sodium pyruvate (2.5 mM) 2-24 hours before injection. Fifty nl of cRNA (50 pg) were injected into each oocyte using a Nanoject injector (Drummond Scientific, Broomall, Pa.). Injected oocytes were kept at 8° C. in MBS until one day before electrophysiological recordings, when they were incubated at 16° C. All chemicals were supplied from Sigma-Aldrich (Stockholm, Sweden) if not stated otherwise.
All manual electrophysiological recordings were performed at room temperature (20-23° C.), using a GeneClamp 500B amplifier (for oocytes) or a Axopatch 200B amplifier (for manual patch clamp of CHO—K1 cells and DRG neurons) and a Digidata 1440A digitizer and pClamp 10 software (all from Molecular Devices, Inc., Sunnyvale, Calif., USA). Compounds were dissolved to 100 mM in 99.5% EtOH and stored at −20° C. Compounds were diluted in extracellular solution to the desired test concentration.
The oocyte was placed in a bath surrounded by 1K extracellular solution that contained (in mM): 88 NaCl, 1 KCl, 15 HEPES, 0.4 CaCl2, and 0.8 MgCl2, pH adjusted to 7.4 by NaOH (reaching a sodium concentration of ˜100 mM). Control solution was added to the bath with a gravity driven perfusion system. Compound solution was added to the bath manually with a syringe. Two glass microelectrodes were inserted into the oocyte using micromanipulators. […] All channels were closed when the potential was clamped to −80 mV and this voltage was set as the holding potential. Currents were evoked from the holding potential of −80 mV by 100-ms long, 5-mV steps ranging from −80 up to +50 mV (WT) and +70 mV (3R).
Conductance GK(V) was calculated as GK(V)=[…], (Eq. 1) where IK is the average current from the steady-state phase at the end of each 100-ms pulse, V is the membrane voltage, and Vrev is the reversal potential for K^+, (set to −80 mV for the oocytes, and calculated to be −89 mV for the CHO—K1 cells).
G(V)=A/(1+exp((V1/2−V)/s))^n (Eq. 2) where A is amplitude of the curve, V is the absolute membrane voltage, V1/2 is the midpoint, s is the slope and n is an exponent set to 4^17. The compound-induced G(V) shift was determined at the 10% level of the maximum conductance in control solution^17. The compound-induced G(V) shift in CHO—K1 was quantified by subtracting the control V1/2 from the compound V1/2 when n was set to 1.
Data for concentration and pH dependent G(V) shifts (ΔV) in oocytes were fit with a dose-response equation ΔV=ΔVmax/(1+c1/2/c), (Eq. 3) where Δvmax is the maximal shift, c1/2 is half maximal effective concentration/pKa value and c is the concentration.

Sequence of 3R Shaker K channel (P08510 whole entry M356R/A359R): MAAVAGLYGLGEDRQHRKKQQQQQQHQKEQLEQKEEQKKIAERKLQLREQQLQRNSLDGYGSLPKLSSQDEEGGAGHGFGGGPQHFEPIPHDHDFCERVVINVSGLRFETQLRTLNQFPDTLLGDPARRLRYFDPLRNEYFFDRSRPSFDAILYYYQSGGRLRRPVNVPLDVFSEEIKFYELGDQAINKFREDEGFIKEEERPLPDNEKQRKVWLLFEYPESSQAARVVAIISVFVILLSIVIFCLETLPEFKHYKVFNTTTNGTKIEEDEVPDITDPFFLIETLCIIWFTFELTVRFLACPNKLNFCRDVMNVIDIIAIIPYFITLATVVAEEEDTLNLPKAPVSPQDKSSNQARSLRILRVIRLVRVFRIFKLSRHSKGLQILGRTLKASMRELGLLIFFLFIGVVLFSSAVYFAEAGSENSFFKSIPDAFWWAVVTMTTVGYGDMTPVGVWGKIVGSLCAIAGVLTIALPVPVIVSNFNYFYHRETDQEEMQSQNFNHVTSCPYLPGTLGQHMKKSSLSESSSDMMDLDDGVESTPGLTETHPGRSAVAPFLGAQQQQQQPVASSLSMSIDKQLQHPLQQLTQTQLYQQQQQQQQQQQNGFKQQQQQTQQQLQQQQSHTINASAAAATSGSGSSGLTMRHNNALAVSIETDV

CO/N=C1\CC2[C@](C)(C(=O)O)CCC[C@]2(C)c2cc(F)c(C(C)C)cc21 (stereo partly drawn) [Wu55, (1R,4aS,E)-6-fluoro-7-isopropyl-9-(methoxyimino)-1,4a-dimethyl-1,2,3,4,4a,9,10,10a-octahydrophenanthrene-1-carboxylic acid]
G(V) shift: −19.9 mV

CC(C)c1ccc2c(c1F)CC[C@H]1[C@](C)(C(=O)O)CCC[C@]21C [Wu56, (1R,4aS,10aR)-8-fluoro-7-isopropyl-1,4a-dimethyl-1,2,3,4,4a,9,10,10a-octahydrophenanthrene-1-carboxylic acid]
G(V) shift: −6.6 mV

CC(C)c1cc2c(cc1I)[C@@]1(C)CCC[C@@](C)(C(=O)O)C1CC2 (stereo partly drawn) [Wu60, (1R,4aS,E)-6-iodo-7-isopropyl-1,4a-dimethyl-1,2,3,4,4a,9,10,10a-octahydrophenanthrene-1-carboxylic acid]
G(V) shift: −9.0 mV

CC(C)c1ccc2c(c1I)CCC1[C@](C)(C(=O)O)CCC[C@]21C (stereo partly drawn) [Wu61, (1R,4aS,E)-8-iodo-7-isopropyl-1,4a-dimethyl-1,2,3,4,4a,9,10,10a-octahydrophenanthrene-1-carboxylic acid]
G(V) shift: −18.3 mV

CC(C)c1cc2c(cc1I)[C@@]1(C)CCC[C@@](C)(C(=O)O)[C@@H]1CC2=O [Wu62, (1R,4aS,10aR)-6-iodo-7-isopropyl-9-oxo-1,4a-dimethyl-1,2,3,4,4a,9,10,10a-octahydrophenanthrene-1-carboxylic acid]
G(V) shift: −13.7 mV

C=CCO/N=C1\CC2[C@](C)(C(=O)O)CCC[C@]2(C)c2cc(I)c(C(C)C)cc21 (stereo partly drawn) [Wu63, (1R,4aS,E)-9-((allyloxy)imino)-6-iodo-7-isopropyl-1,4a-dimethyl-1,2,3,4,4a,9,10,10a-octahydrophenanthrene-1-carboxylic acid]
G(V) shift: −19.3 mV

CO/N=C1\CC2[C@](C)(C(=O)O)CCC[C@]2(C)c2cc(I)c(C(C)C)cc21 (stereo partly drawn) [Wu64, (1R,4aS,E)-6-iodo-7-isopropyl-9-(methoxyimino)-1,4a-dimethyl-1,2,3,4,4a,9,10,10a-octahydrophenanthrene-1-carboxylic acid]
G(V) shift: −22.2 mV

CC(C)c1ccc2c(c1I)C(=O)C[C@H]1[C@](C)(C(=O)O)CCC[C@]21C [Wu68, (1R,4aS,10aR)-8-iodo-7-isopropyl-1,4a-dimethyl-9-oxo-1,2,3,4,4a,9,10,10a-octahydrophenanthrene-1-carboxylic acid]
G(V) shift: −26.0 mV

CC(C)c1ccc2c(c1Br)C(=O)CC1[C@](C)(C(=O)O)CCC[C@]21C (some centres unmarked) [Wu73]
G(V) shift: −5.8 mV

C=CCON=C1CC2C(C)(C(=O)O)CCCC2(C)c2ccc(C(C)C)c(Br)c21 (centres unmarked) [Wu75]
G(V) shift: −8.6 mV

C=Cc1c(C(C)C)ccc2c1CCC1[C@](C)(C(=O)O)CCC[C@]21C (some centres unmarked) [Wu76]
G(V) shift: −7.7 mV

C=Cc1cc2c(cc1C(C)C)CCC1[C@](C)(C(=O)O)CCC[C@]21C (stereo partly drawn) [Wu78, (1R,4aS)-7-isopropyl-1,4a-dimethyl-6-vinyl-1,2,3,4,4a,9,10,10a-octahydrophenanthrene-1-carboxylic acid]
G(V) shift: −13.2 mV

CC(C)c1cc2c(cc1C1CC1)[C@@]1(C)CCC[C@@](C)(C(=O)O)C1CC2 (some centres unmarked) [Wu81]
G(V) shift: −8.2 mV

CC=Cc1cc2c(cc1C(C)C)CCC1[C@](C)(C(=O)O)CCC[C@]21C (some centres unmarked) [Wu84]
G(V) shift: −0.2 mV

CC=Cc1c(C(C)C)ccc2c1CCC1[C@](C)(C(=O)O)CCC[C@]21C (some centres unmarked) [Wu85]
G(V) shift: −1.9 mV

CC(C)c1cc2c(cc1I)[C@@]1(C)CCC[C@@](C)(C(=O)O)C1C/C2=N\O (stereo partly drawn) [Wu86, (1R,4aS,E)-9-(hydroxyimino)-6-iodo-7-isopropyl-1,4a-dimethyl-1,2,3,4,4a,9,10,10a-octahydrophenanthrene-1-carboxylic acid]
G(V) shift: −21.0 mV

CC(C)c1cc2c(cc1I)C1(C)CCCC(C)(C(=O)O)C1CC2=NOCc1ccccc1 (centres unmarked) [Wu87]
G(V) shift: −6.0 mV

CC(C)c1ccc2c(c1Br)C(=NO)CC1C(C)(C(=O)O)CCCC21C (centres unmarked) [Wu88]
G(V) shift: −5.6 mV

CC(C)c1ccc2c(c1Br)C(=NOCc1ccccc1)CC1C(C)(C(=O)O)CCCC21C (centres unmarked) [Wu89]
G(V) shift: −5.2 mV

CO/N=C1\C[C@H]2[C@](C)(C(=O)O)CCC[C@]2(C)c2ccc(C(C)C)c(I)c21 [Wu90]
G(V) shift: −19.2 mV

C=CCO/N=C1\C[C@H]2[C@](C)(C(=O)O)CCC[C@]2(C)c2ccc(C(C)C)c(I)c21 [Wu91, (1R,4aS,10aR)-9-((allyloxy)imino)-8-iodo-7-isopropyl-1,4a-dimethyl-1,2,3,4,4a,9,10,10a-octahydrophenanthrene-1-carboxylic acid]
G(V) shift: −12.5 mV

CC(C)c1cc(Cl)c2c(c1)CCC1C(C)(C(=O)O)CCCC21C (centres unmarked) [Wu100]
G(V) shift: −2.7 mV

CC(C)c1cc(Cl)c2c(c1)C(O)CC1[C@](C)(C(=O)O)CCC[C@]21C (some centres unmarked) [Wu101]
G(V) shift: −9.6 mV

CC(C)c1cc(Cl)c2c(c1)C(O)C[C@H]1[C@](C)(C(=O)O)CCC[C@]21C (some centres unmarked) [Wu102]
G(V) shift: −2.8 mV

C=CCO/N=C1\C[C@H]2[C@](C)(C(=O)O)CCC[C@]2(C)c2c(Cl)cc(C(C)C)cc21 [Wu104, (1R,4aS,10aR)-9-((allyloxy)imino)-5-chloro-7-isopropyl-1,4a-dimethyl-1,2,3,4,4a,9,10,10a-octahydrophenanthrene-1-carboxylic acid]
G(V) shift: −12.9 mV

CO/N=C1\C[C@H]2[C@](C)(C(=O)O)CCC[C@]2(C)c2c(Cl)cc(C(C)C)cc21 [Wu105, (1R,4aS,10aR)-5-chloro-7-isopropyl-9-(methoxyimino)-1,4a-dimethyl-1,2,3,4,4a,9,10,10a-octahydrophenanthrene-1-carboxylic acid]
G(V) shift: −23.2 mV

CC(C)c1cc(Cl)c2c(c1O)CC[C@H]1[C@](C)(C(=O)O)CCC[C@]21C [Wu106]
G(V) shift: −3.4 mV

CC(C)c1cc2c(cc1F)[C@@]1(C)CCC[C@@](C)(C(=O)O)[C@@H]1CC2 [Wu108, (1R,4aS,10aR)-6-fluoro-7-isopropyl-1,4a-dimethyl-1,2,3,4,4a,9,10,10a-octahydrophenanthrene-1-carboxylic acid]
G(V) shift: −10.4 mV

CC(C)c1cc(Cl)c2c(c1Cl)CC[C@H]1[C@](C)(C(=O)O)CCC[C@]21C [Wu112]
G(V) shift: −14.7 mV

CC(C)c1ccc2c(c1F)C(=O)C[C@H]1[C@](C)(C(=O)O)CCC[C@]21C [Wu113]
G(V) shift: −3.6 mV

C=CCON=C1CC2C(C)(C(=O)O)CCCC2(C)c2c(Cl)cc(C(C)C)c(Cl)c21 (centres unmarked) [Wu114]
G(V) shift: −13.3 mV

C[C@@]1(C(=O)O)CCC[C@]2(C)c3ccc(Cl)c(Cl)c3CCC12 (stereo partly drawn) [Wu115, (1R,4aS)-7,8-dichloro-1,4a-dimethyl-1,2,3,4,4a,9,10,10a-octahydrophenanthrene-1-carboxylic acid]
G(V) shift: −24.2 mV

CC(C)c1cc2c(cc1F)[C@@]1(C)CCC[C@@](C)(C(=O)O)[C@@H]1CC2=O [Wu116]
G(V) shift: −4.4 mV

C=Cc1cc2c(cc1C(C)C)C(=O)C[C@H]1[C@](C)(C(=O)O)CCC[C@]21C [Wu118]
G(V) shift: 0.2 mV

C=Cc1cc2c(cc1C(C)C)/C(=N/OC)CC1[C@](C)(C(=O)O)CCC[C@]21C (stereo partly drawn) [Wu119, (1R,4aS,E)-7-isopropyl-9-(methoxyimino)-1,4a-dimethyl-6-vinyl-1,2,3,4,4a,9,10,10a-octahydrophenanthrene-1-carboxylic acid]
G(V) shift: −30.3 mV
